Assay results reported in ChEMBL document CHEMBL1159382, “New antimalarial bis-dehydroaporphine alkaloids from Polyalthia debilis” (J Nat Prod, 2003).
In brackets after ≈: the same amount, converted by molar mass.

Each compound was assayed on Plasmodium falciparum (assay: Antimalarial activity against multidrug-resistant Plasmodium falciparum K1 by [3H]hypoxanthine uptake).
Format: functional, organism-based

First: C[C@@H]1CC[C@H]2[C@@H](C)C(=O)O[C@@H]3O[C@@]4(C)CC[C@@H]1[C@]32OO4 [ARTEMISININ]
Second: COc1cccc2c1c(-c1c3c4c(cc5c(c4c4cccc(OC)c14)OCO5)CCN3)c1c3c(cc4c(c32)OCO4)CCN1 [BIDEBILINE C]
The IC50 of the first is 5400-fold lower: 0.001 µg/mL (≈ 0.00354 µM) for the first, 5.4 µg/mL (≈ 9.24 µM) for the second.

`COc1ccc2c(-c3c4c5c(cc6c(c5c5cc(OC)ccc35)OCO6)CCN4)c3c4c(cc5c(c4c2c1)OCO5)CCN3` [BIDEBILINE D] gave an IC50 of 4.1 µg/mL (≈ 7.01 µM).
